Test results taken from patent US5786348A, “Methods for preparation and use of 1α,24(S)-dihydroxy vitamin D2” (priority 1995, dated 1998).

Columns and labels:
[1] = test system: human cancer cell lines BCA-1 or ZR-75-1 (breast) and COL-1 (colon); assay: Antiproliferative activity in human cancer cell lines (thymidine incorporation); format: cell-based; conditions: dose-response in breast and colon cancer cell lines
Procedure: Dose-response studies are conducted with 1α,24(S)-(OH)2 D2 in a battery of human cancer cell lines. These cell lines include, but are not limited to, the following: BCA-1 or ZR-75-1 (breast) and COL-1 (colon), as described by Shieh, H. L. et al. Chem. Biol. Interact., vol. 81, pp. 35-55 (1982). In this study, appropriate solvents are used as negative controls.

[2] = Dose ranging study in postmenopausal osteoporotic women; format: in vivo, human; conditions: oral 0.5 to 8.0 μg/day, rising weekly over five weeks
Procedure: Twenty postmenopausal osteoporotic women are enrolled in an open label study.
On admission to the study, all patients receive instruction on selecting a daily diet containing 400 to 600 mg of calcium. Compliance to this diet is verified at weekly intervals by 24-hour food records and by interviews with each patient.
All patients complete a one-week baseline period, a five-week treatment period, and a one-week post-treatment observation period. During the treatment period, patients orally self-administer 1α,24(S)-dihydroxyvitamin D2 at an initial dose of 0.5 μg/day for the first week, and at successively higher doses of 1.0, 2.0, 4.0, and 8.0 μg/day in each of the following four weeks. All doses are administered before breakfast.
Blood and urine chemistries are monitored on a weekly basis throughout the study. Key blood chemistries include fasting serum levels of calcium, phosphorus, osteocalcin, creatinine, and blood urea nitrogen. Key urine chemistries include 24-hour excretion of calcium, phosphorus, and creatinine.

[3] = target: T1, vitamin D receptor (VDR) (Homo sapiens, UniProt P11473); assay: Vitamin D-dependent transcriptional activation: growth hormone production in COS-1 cells co-transfected with VDR plasmid and VDRE-GH reporter; format: cell-based; conditions: for Total GH Production: averages of duplicate determinations
T1 sequence (P11473 1-427): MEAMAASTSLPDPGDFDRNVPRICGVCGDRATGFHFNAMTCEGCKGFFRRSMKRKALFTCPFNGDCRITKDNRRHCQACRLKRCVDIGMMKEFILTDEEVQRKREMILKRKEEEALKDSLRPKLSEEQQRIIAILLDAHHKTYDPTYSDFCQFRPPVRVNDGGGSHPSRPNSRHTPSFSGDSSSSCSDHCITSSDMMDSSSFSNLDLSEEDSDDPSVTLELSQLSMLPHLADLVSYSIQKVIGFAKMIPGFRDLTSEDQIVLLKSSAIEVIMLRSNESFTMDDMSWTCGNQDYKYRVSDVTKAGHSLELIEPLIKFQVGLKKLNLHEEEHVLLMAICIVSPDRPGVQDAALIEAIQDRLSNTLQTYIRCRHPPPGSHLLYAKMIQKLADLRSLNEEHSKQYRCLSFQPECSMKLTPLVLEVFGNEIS
Procedure: The biological activity in vitro of chemically synthesized 1α,24(S)-(OH)2 D2 and 1α,24(R)-(OH)2 D2 was measured using a vitamin D-dependent transcriptional activation model system in which a vitamin D receptor (VDR)-expressing plasmid pSG5-hVDR1/3and a plasmid p(CT4)^4 TKGH containing a Growth Hormone (GH)-gene, under the control of a vitamin D-responsive element (VDRE) were co-transfected into Green monkey kidney, COS-1 cells. DNA's for these two vectors were supplied by Dr. Mark Haussler, Department of Biochemistry, University of Arizona, Tucson, Ariz.
Transfected cells were incubated with vitamin D metabolites and growth hormone production was measured.

[4] = Dermatological testing: topical ointment in dermatitis patients; format: in vivo, human; conditions: ointment 10 μg per gram, twice daily, four to six weeks
Procedure: Compositions containing 1α,24(S)-dihydroxy vitamin D2 are evaluated for therapeutic efficacy of the composition in the topical treatment of dermatitis (contact and ectopic). The composition evaluated is an ointment containing 10 μg of 1α,24-dihydroxy vitamin D2 per gram of ointment in a petrolatum-almond oil base. […] The patients are treated in an out-patient clinic. They are instructed to use the preparation two times a day.
The ointment is as far as possible applied to a single lesion, or to an area of the disease. The ointment and its container are weighed before the treatment starts and returned with any unused contents for reweighing at the end of the treatment.
The area of the lesion treated is estimated and recorded, and the lesion is photographed as required, together with suitable "control" lesions. The latter are preferably lesions of similar size and stage of development, either in the vicinity of the treated lesion or symmetrically contralateral. Relevant details of the photographic procedure are recorded so as to be reproduced when the lesions are next photographed (distance, aperture, angle, background, etc.). The ointment is applied twice daily and preferably left uncovered. The "control" lesions are left untreated, but if this is not possible, the treatment used on them is noted. […]

[5] = test system: Human keratinocytes; assay: Epidermal cell differentiation and proliferation testing; format: cell-based; conditions: 0.05 to 5 μg/ml; against ethanol control cultures
Procedure: Human keratinocytes are cultured according to known modifications of the system originally described by Rheinwald and Green (Cell, vol. 6, p. 331 (1975)). The 1α,24(S)-dihydroxy vitamin D2, dissolved in ethanol, is added to cells to yield a variety of concentrations between 0.05 and 5 μg/ml with the ethanol concentration not to exceed 0.5% v/v. Control cultures are supplemented with ethanol at a final concentration of 0.5% v/v.
Differentiation and proliferation of epidermal cells in culture is examined by:
1. quantitation of cornified envelopes;
2. quantitation of cell density of cells attached to disks;
3. monitoring transglutaminase activity; or
4. monitoring DNA synthesis by incorporation of ^3 H-thymidine.

[6] = inducer molar concentration 5 × 10^-8
[7] = inducer molar concentration 5 × 10^-9
[8] = inducer molar concentration 5 × 10^-10

Structure (SMILES): C=C1/C(=C\C=C2/CCC[C@]3(C)[C@@H]([C@H](C)/C=C/[C@@](C)(O)C(C)C)CC[C@@H]23)C[C@@H](O)C[C@@H]1O [1α,24(S)-(OH)2 D2, 1α,24(S)-dihydroxy vitamin D2]
- Antiproliferative activity (inhibition of thymidine incorporation) [1]: potent (and reversible) antiproliferative activity
- 24-hour urinary calcium levels [2]: modest increases
- Routinely monitored serum parameters [2]: no effect
- Serum osteocalcin levels [2]: increases
- Activity in the transcriptional activation system relative to 1α,24(R)-(OH)2 D2 ([3]; compared with the 24(R) epimer): significantly more activity
- Net vitamin D-inducible GH-production [3, 6]: 1138 ng/mL
- Total GH Production [3, 6]: 1182 ng/mL
- Net vitamin D-inducible GH-production [3, 7]: 1306 ng/mL
- Total GH Production [3, 7]: 1350 ng/mL
- Net vitamin D-inducible GH-production [3, 8]: 381 ng/mL
- Total GH Production [3, 8]: 425 ng/mL
- Incidence of hypercalcemia [4]: insignificant incidence
- Lesion severity scores (erythema, scaling, thickness; 0 to 3) ([4]; against control lesions): lower scores than the control lesions
- Cell density of attached cells [5]: fewer attached cells
- Cornified envelopes [5]: more cornified envelopes
- DNA synthesis (3H-thymidine incorporation) [5]: lower DNA synthesis
- Transglutaminase activity [5]: higher transglutaminase activity
